Laboratory results as given in patent publication US7345018B2, “Method of treating side effects induced by therapeutic agents” (Reception ApS, priority 2002, dated 2008).
Blank lines part the entries; values can stand above or below the compound they belong to.

Legend:
megalin [1] = conditions: relative to gentamicin; cited from earlier work
[2] = patients, nephro- and ototoxic side effects; cited from earlier work
cubilin = target: T1, cubilin (Oryctolagus cuniculus, UniProt U3KLX7); experiment: BIAcore analysis of binding to cubilin; conditions: for effect of reduction of disulfide-bridges on binding to cubilin: reduced receptor (reducing agent)
T1 construct: Megalin and cubilin purified from rabbit kidney cortex; from tissue

[3] = system: cells expressing megalin and cubilin; experiment: Inhibition of cellular accumulation of radiolabeled gentamicin; format: cell-based; conditions: FIG. 4
megalin [4] = target: T2, megalin (Mus musculus, UniProt A2ARV4); experiment: Uptake of radioactively labelled gentamicin in wildtype and megalin-deficient (knockout) mice; format: in vivo; conditions: wildtype mice, after 24 hours, radioactively labelled
T2 construct: from tissue; host or cells: kidney of living wildtype mice (in vivo); the knockout mice lack the receptor
T2 sequence (A2ARV4 26-4660): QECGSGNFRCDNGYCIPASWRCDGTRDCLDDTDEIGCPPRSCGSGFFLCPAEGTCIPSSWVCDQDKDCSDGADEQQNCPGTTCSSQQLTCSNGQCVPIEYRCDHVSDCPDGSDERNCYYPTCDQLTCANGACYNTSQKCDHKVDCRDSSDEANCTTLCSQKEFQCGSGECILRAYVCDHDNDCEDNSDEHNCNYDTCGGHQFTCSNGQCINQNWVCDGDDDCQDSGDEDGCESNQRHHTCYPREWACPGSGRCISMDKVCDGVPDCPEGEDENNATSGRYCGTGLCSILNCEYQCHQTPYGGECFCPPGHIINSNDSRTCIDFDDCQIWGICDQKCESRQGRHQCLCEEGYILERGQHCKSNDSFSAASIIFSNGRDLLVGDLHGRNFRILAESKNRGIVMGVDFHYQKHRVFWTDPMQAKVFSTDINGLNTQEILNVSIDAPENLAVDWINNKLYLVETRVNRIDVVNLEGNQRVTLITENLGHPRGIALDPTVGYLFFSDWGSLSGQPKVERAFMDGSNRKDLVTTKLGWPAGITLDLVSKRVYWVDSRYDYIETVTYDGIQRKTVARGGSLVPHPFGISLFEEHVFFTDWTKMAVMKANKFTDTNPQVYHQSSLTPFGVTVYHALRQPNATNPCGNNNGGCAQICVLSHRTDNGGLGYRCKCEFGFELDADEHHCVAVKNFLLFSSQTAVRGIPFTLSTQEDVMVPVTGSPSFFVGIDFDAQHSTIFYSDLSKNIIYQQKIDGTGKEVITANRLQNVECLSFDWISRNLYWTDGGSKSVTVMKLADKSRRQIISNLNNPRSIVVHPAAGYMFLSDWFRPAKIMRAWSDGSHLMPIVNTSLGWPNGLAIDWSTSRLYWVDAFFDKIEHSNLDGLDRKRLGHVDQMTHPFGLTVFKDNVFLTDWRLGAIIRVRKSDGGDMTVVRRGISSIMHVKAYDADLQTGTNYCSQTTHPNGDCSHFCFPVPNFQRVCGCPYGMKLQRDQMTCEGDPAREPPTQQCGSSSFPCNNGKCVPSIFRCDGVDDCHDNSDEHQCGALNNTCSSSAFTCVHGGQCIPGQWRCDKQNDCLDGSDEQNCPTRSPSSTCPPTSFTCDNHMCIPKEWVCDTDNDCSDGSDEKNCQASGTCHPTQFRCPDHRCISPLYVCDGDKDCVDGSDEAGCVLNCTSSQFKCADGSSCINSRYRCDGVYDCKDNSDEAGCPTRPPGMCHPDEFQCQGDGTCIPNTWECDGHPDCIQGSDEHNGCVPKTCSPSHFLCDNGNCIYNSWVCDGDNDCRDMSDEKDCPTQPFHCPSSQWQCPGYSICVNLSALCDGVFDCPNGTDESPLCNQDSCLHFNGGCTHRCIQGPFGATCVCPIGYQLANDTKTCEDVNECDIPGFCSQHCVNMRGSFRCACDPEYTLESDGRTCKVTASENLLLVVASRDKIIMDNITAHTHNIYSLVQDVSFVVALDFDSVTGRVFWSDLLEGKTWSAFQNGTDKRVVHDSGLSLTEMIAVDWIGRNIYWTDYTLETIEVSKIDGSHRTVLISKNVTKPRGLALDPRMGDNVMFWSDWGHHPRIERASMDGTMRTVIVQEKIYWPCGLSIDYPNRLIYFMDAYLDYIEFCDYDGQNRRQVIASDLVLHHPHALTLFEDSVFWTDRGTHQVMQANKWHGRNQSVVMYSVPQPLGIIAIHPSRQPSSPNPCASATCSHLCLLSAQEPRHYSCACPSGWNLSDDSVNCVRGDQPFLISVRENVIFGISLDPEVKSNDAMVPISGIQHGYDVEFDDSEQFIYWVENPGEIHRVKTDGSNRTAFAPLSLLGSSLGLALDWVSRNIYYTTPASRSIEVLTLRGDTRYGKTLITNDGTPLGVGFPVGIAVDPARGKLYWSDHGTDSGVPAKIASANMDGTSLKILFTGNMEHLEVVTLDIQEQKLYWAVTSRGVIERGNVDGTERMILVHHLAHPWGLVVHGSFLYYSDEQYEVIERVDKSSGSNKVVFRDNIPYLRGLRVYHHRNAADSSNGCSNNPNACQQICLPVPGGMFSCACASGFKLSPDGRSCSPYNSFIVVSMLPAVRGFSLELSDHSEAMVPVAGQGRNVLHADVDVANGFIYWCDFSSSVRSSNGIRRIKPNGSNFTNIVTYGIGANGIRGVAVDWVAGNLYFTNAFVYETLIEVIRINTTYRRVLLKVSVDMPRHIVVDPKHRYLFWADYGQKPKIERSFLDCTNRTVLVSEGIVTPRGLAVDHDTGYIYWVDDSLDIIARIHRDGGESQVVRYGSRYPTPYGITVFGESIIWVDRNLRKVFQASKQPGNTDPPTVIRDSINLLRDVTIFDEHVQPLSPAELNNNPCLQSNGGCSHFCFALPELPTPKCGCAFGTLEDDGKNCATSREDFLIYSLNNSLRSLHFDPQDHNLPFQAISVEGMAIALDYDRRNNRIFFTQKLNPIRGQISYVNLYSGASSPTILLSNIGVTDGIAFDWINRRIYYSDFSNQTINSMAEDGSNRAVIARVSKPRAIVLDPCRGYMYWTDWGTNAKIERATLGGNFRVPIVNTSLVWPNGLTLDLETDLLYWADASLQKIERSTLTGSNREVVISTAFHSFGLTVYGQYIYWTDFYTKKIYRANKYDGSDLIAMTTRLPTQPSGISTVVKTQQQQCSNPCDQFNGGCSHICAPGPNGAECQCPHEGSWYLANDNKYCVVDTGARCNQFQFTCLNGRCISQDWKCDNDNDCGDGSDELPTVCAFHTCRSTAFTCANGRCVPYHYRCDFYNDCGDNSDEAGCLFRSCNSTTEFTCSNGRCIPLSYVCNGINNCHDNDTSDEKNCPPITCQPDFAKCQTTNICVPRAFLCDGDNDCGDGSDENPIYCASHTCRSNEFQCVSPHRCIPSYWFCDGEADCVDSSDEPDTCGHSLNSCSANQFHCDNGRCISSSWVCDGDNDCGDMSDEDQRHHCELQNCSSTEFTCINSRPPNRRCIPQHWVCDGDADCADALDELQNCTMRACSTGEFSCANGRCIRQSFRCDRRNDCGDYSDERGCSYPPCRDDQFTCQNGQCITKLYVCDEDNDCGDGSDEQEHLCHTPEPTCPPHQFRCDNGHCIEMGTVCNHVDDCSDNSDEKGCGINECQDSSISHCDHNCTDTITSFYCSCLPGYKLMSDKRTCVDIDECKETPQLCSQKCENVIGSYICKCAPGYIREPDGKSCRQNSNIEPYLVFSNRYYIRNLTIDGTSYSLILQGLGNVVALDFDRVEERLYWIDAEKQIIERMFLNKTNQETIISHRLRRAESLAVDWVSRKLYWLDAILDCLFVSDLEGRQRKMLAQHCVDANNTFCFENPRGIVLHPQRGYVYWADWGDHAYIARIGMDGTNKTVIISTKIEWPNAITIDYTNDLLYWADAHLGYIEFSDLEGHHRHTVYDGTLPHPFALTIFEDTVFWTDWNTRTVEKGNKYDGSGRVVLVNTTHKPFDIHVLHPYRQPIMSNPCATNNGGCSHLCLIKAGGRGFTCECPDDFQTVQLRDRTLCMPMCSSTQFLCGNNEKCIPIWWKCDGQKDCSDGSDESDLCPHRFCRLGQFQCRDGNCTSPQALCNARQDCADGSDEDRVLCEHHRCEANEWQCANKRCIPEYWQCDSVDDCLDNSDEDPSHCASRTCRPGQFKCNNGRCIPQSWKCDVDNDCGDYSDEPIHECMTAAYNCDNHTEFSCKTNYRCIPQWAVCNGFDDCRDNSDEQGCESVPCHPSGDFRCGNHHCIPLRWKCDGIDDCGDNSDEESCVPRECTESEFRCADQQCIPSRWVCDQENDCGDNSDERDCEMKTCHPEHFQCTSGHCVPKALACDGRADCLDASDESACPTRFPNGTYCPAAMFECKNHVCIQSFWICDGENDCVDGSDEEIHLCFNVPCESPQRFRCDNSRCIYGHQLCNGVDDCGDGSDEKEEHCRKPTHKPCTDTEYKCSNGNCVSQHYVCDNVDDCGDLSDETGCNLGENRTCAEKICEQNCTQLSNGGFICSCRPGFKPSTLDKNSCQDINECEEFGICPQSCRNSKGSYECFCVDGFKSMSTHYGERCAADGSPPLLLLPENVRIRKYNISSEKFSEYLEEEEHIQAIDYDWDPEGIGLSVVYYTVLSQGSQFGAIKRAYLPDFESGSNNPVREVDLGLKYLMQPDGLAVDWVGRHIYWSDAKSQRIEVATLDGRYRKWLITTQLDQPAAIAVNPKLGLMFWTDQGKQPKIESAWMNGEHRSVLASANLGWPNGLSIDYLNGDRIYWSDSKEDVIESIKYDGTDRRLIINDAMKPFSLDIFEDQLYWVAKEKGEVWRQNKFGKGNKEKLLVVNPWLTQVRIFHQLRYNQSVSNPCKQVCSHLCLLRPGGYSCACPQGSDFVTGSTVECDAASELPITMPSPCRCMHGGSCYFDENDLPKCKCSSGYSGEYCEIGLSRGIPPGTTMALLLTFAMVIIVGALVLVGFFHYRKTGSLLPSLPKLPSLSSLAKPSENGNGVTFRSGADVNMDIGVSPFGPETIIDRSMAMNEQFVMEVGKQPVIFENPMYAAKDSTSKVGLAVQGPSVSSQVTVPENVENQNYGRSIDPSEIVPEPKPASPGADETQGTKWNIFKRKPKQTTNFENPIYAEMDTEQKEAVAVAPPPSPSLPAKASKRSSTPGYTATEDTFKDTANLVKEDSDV
Description: (§1) Radioactively labelled aminoglycosides (gentamicin) were injected into 26 normal (wildtype) and into 3 megalin-deficient mice (knockout). After 24 hours, the secretion of the aminoglycosides into the urine and their accumulation in the kidneys were determined. In wildtype mice, about 10% of the administered aminoglycosides are accumulated in the kidneys and 40% are secreted into the urine.
(§2) In one embodiment the animal model is a mouse model with an induced megalin gene defect (knockout mouse; Nykjaer, A. et al., Cell 96, 507-515). In these animals, the contribution of megalin and other receptor-mediated or receptor-independent processes to the drug uptake into the kidneys may be tested. The amount of intracellular accumulation of the drug in question as compared to a control having sufficient megalin indicates whether the mechanism of side effects is intracellular accumulation through megalin binding or some other mechanism.

megalin [5] = experiment: as above; format: in vivo, mouse; conditions: megalin-deficient knockout mice, after 24 hours
Description: as §1, §2

megalin [6] = experiment: BIAcore analysis of binding to megalin
mouse kidney = experiment: Inhibition of uptake of radio-labeled gentamicin into mouse kidney; format: in vivo; conditions: intravenous co-infusion, FIG. 5
Source text: FIG. 5: Inhibition of uptake of radio-labeled gentamicin into mouse kidney
The drugs were administrated intravenously. […] This is most likely because infused RAP rapidly is cleared from the circulation by uptake into the liver.

megalin [7] = target: T2, megalin; experiment: Suppression of radioactive gentamicin uptake into the kidneys of wildtype mice by megalin antagonist; format: in vivo; conditions: co-injection with radioactive gentamicin
Description: Two groups of wildtype mice received an injection of radioactive gentamicin. One group was also injected with polymyxin B, a substance that binds with a high affinity to megalin and displaces gentamicin from the receptor. The administration of polymyxin B reduces the uptake of aminoglycosides into the kidneys by more than 60%.

[8] = addition of EDTA (calcium depletion)

Compound: NCC[C@H](O)C(=O)N[C@@H]1C[C@H](N)[C@@H](O[C@H]2O[C@H](CN)[C@@H](O)[C@H](O)[C@H]2O)[C@H](O)[C@H]1O[C@H]1O[C@H](CO)[C@@H](O)[C@H](N)[C@H]1O [amikacin]
poorer binding than gentamicin to megalin (megalin [1]): about 5 times | rate of toxicity [2]: 1-4%

effect of reduction of disulfide-bridges on binding to cubilin (cubilin): significantly inhibited
Compound: RAP: receptor-associated protein, a cellular protein comprising about 300 amino acids, known to bind to megalin
inhibition of cellular accumulation of radiolabeled gentamicin [3]: able to inhibit at least partly

Compound: aprotinin
inhibition of cellular accumulation of radiolabeled gentamicin [3]: inhibit gentamioin uptake

accumulation of administered aminoglycoside in the kidneys (megalin [4]): about 10% | secretion of administered aminoglycoside into the urine (megalin [4]): 40% | accumulation of aminoglycoside in the kidneys (megalin [5]): no accumulation | secretion of antibiotic into the urine (megalin [5]): 40% | binding to megalin (megalin [6]; BIAcore, FIG. 3 panel A): direct binding | effect of EDTA on binding to megalin (megalin [6]; [8]): does not abolish binding | binding to cubilin (cubilin; BIAcore, FIG. 3 panel B): direct binding | effect of EDTA on binding to cubilin (cubilin; [8]): does not abolish binding
Compound: gentamicin
effect of reduction of disulfide-bridges on binding to megalin (megalin [6]; reduced receptor): does not significantly interefere with ligand binding | effect of reduction of disulfide-bridges on binding to cubilin (cubilin): does not significantly interefere with ligand binding | inhibition of uptake of radio-labeled gentamicin into mouse kidney (mouse kidney): can be inhibited

Compound: poly-L-aspartate
inhibition of cellular accumulation of radiolabeled gentamicin [3]: not

Compound: poly-L-lysine
inhibition of cellular accumulation of radiolabeled gentamicin [3]: can be inhibited | inhibition of uptake of radio-labeled gentamicin into mouse kidney (mouse kidney): can be inhibited

reduction of uptake of aminoglycosides into the kidneys (megalin [7]): more than 60%
Compound: polymyxin B
inhibition of cellular accumulation of radiolabeled gentamicin [3]: inhibit gentamioin uptake | inhibition of uptake of radio-labeled gentamicin into mouse kidney (mouse kidney): can be inhibited
